According to patent US6372774B1, “Derivatives of N-phenylpyrazoles” (Rhone-Poulenc Agriculture Ltd., priority 1985, dated 2002):

Key:
[1] = system: Megoura viciae (Vetch Aphid); experiment: Test 3 b): spray of infested tic bean plants, Megoura viciae; format: in vivo; details: for Megoura score/12 50 ppm: Tables 1 and 3, sum of scores 0-3 of 4 replicates; for mortality at 50 ppm: Megoura viciae, read-out: mortality of Megoura viciae; for score from 4 replicates, Megoura viciae: Test 3 method (b), application of 50 ppm, score 0-3 per replicate, maximum 12
Method: (§1) One or more dilutions of the compounds to be tested were made in 50% aqueous acetone.
b) Megoura viciae (Vetch Aphid)
Potted tic bean plants previously infected with mixed stages of Megoura were sprayed to run-off using a laboratory turntable sprayer. Treated plants were held in a greenhouse for 2 days and were assessed for aphid mortality using a scoring system, judging the response in comparison with plants treated with 50% aqueous acetone alone, as controls.

[2] = system: Phaedon cochleariae (Mustard Beetle); experiment: Test 3 a): leaf disc spray test, Phaedon cochleariae larvae; format: in vivo; details: Phaedon cochleariae, foliar; for pest or weed control at 10 ppm: read-out: Phaedon % m 10 ppm; for mortality at 5 ppm: read-out: mortality of larvae of Phaedon cochleariae
Source text: as §1
(§2) a) Test species: Plutella xylostella (Diamond-back Moth) and Phaedon cochleariae (Mustard Beetle)
(§3) Turnip leaf discs were set in agar in petri-dishes and infected with 10 larvae (2nd instar Plutella or 3rd instar Phaedon). Four replicate dishes were assigned to each treatment and were sprayed under a Potter Tower with the appropriate test dilution. Four or five days after treatment the dishes were removed from the constant temperature (25° C.) room in which they had been held and the mean percentage mortalities of larvae were determined.

[3] = system: Plutella xylostella (Diamond-back Moth); experiment: whole plant or invertebrate; format: in vivo; details: foliar; for mortality at 500 ppm: read-out: mortality of larvae of Plutella xylostella
Source text: as §1, §2, §3

With N#Cc1nn(-c2c(Cl)cc(C(F)(F)F)cc2Cl)c(N)c1SC(F)(F)C(F)Cl (centres unmarked) the melting point was 116 to 118 °C.

N#Cc1nn(-c2c(Cl)cc(C(F)(F)F)cc2Cl)c(Br)c1[N+](=O)[O-] gave a melting point of 147 to 150 °C.

In the case of N#Cc1nn(-c2c(Cl)cc(C(F)(F)F)cc2Cl)c(NC(=O)C(Cl)Cl)c1C#N, the melting point is reported as 186 to 187 °C.

Work on CCC(=O)Nc1c(C#N)c(C#N)nn1-c1c(Cl)cc(C(F)(F)F)cc1Cl yielded a melting point of 188 to 189 °C.

For N#Cc1nn(-c2c(Cl)c(F)c(C(F)(F)F)c(F)c2Cl)c(N)c1C#N, the melting point was 245 to 247 °C.

CNc1c(C#N)c(C#N)nn1-c1c(Cl)cc(C(F)(F)F)cc1Cl showed a melting point of 165 to 166 °C.

CCNc1c(C#N)c(C#N)nn1-c1c(Cl)cc(C(F)(F)F)cc1Cl gave a melting point of 245 to 246 °C.

Compound CN(C)c1c([S+]([O-])C(F)(F)F)c(C#N)nn1-c1c(Cl)cc(C(F)(F)F)cc1Cl (centres unmarked) has a melting point of 154 to 161 °C.

Compound N#Cc1nn(-c2c(Cl)cc(C(F)(F)F)cc2Cl)c(Br)c1[S+]([O-])C(F)(F)F (centres unmarked) has a melting point of 147 to 148 °C.

In the case of COC=Nc1c(C#N)c(C)nn1-c1c(Cl)cc(C(F)(F)F)cc1Cl [Compound 118, 4-Cyano-1-(2,6-dichloro-4-trifluoromethylphenyl)-3-methyl-5-methoxymethyleneaminopyrazole], the “Megoura score/12 50 ppm” value [1] is reported as 10, the pest or weed control at 10 ppm [2] is reported as 45% and the pest or weed control at 500 ppm ([3]; read-out: Plutella % m 500 ppm) is reported as 73%.

CCCOC=Nc1c(C#N)c(C)nn1-c1c(Cl)cc(C(F)(F)F)cc1Cl [Compound 119, 4-Cyano-1-(2,6-dichloro-4-trifluoromethylphenyl)-3-methyl-5-propoxymethyleneaminopyrazole] gave a melting point of 77 to 79 °C.

Work on N#Cc1nn(-c2c(F)c(F)c(C(F)(F)F)c(F)c2F)c(N)c1C#N [Compound 126, 5-Amino-3,4-dicyano-1-(2,3,5,6-tetrafluoro-4-trifluoromethylphenyl)pyrazole] yielded a melting point of 262 to 263 °C.

For N#Cc1c(C(F)(F)C(F)(F)F)nn(-c2c(Cl)cc(C(F)(F)F)cc2Cl)c1N [Compound 127, 5-Amino-4-cyano-1-(2,6-dichloro-4-trifluoromethylphenyl)-3-pentafluoroethylpyrazole], the “Megoura score/12 50 ppm” value [1] was 10, the pest or weed control at 10 ppm [2] was 100% and the mortality at 100 ppm ([3]; read-out: Plutella % mortality at 100 ppm) was 100%.

With N#Cc1c(C(F)F)nn(-c2c(Cl)cc(C(F)(F)F)cc2Cl)c1N [Compound 129, 5-Amino-1-(2,6-dichloro-4-trifluoromethylphenyl)-4-cyano-3-difluoromethylpyrazole] the mortality at 50 ppm [1] was 100%, the “score from 4 replicates, Megoura viciae” value [1] was 12 and the pest or weed control at 10 ppm [2] was 100%. It also gave a mortality at 500 ppm [3] of 100%.

CCOC=Nc1c(C#N)c(C(F)(F)F)nn1-c1c(Cl)cc(C(F)(F)F)cc1Cl [Compound 135, 4-Cyano-1-(2,6-dichloro-4-trifluoromethylphenyl)-5-ethoxymethyleneamino-3-trifluoromethylpyrazole] showed a melting point of 160 to 162 °C.

In the case of N#Cc1c(CF)nn(-c2c(Cl)cc(C(F)(F)F)cc2Cl)c1N [Compound 142, 5-Amino-4-cyano-1-(2,6-dichloro-4-trifluoromethylphenyl)-3-fluoromethylpyrazole], the melting point is reported as 139 to 141 °C.

For N#Cc1c(C(F)(F)F)nn(-c2c(Cl)cc(OC(F)(F)F)cc2Cl)c1N [Compound 144, 5-Amino-4-cyano-1-(2,6-dichloro-4-trifluoromethoxyphenyl)-3-trifluoromethylpyrazole], the mortality at 50 ppm [1] was 100%, the “score from 4 replicates, Megoura viciae” value [1] was 12 and the mortality at 5 ppm [2] was 100%. For the same compound, the mortality at 500 ppm [3] was 100%.

In the case of N#Cc1cn(-c2c(Cl)cc(C(F)(F)F)cc2Cl)nc1C(F)(F)F [Compound 150, 4-Cyano-1-(2,6-dichloro-4-trifluoromethylphenyl)-3-trifluoromethylpyrazole], the “Megoura score/12 50 ppm” value [1] is reported as 10, the pest or weed control at 10 ppm [2] is reported as 100% and the mortality at 500 ppm [3] is reported as 100%.

In the case of N#Cc1c(C(F)(F)F)nn(-c2c(Cl)cc(C(F)(F)F)cc2Cl)c1I [Compound 151, 4-Cyano-1-(2,6-dichloro-4-trifluoromethylphenyl)-5-iodo-3-trifluoromethylpyrazole], the “Megoura score/12 50 ppm” value [1] is reported as 11, the pest or weed control at 10 ppm [2] is reported as 100% and the mortality at 500 ppm [3] is reported as 100%.

For N#Cc1nn(-c2c(F)c(F)c(C(F)(F)F)c(F)c2Cl)c(N)c1C#N [Compound 157, 5-Amino-1-(2-chloro-3,5,6-trifluoro-4-trifluoromethylphenyl)-3,4-dicyanopyrazole], the melting point was 242 to 243 °C.

Work on N#Cc1nn(-c2c(Cl)cc(OC(F)(F)F)cc2Cl)c(N)c1C#N [Compound 159, 5-Amino-1-(2,6-dichloro-4-trifluoromethoxyphenyl)-3,4-dicyanopyrazole] yielded a melting point of 231 to 232 °C.

Work on CCOC(=O)c1c(C)nn(-c2c(Cl)cc(C(F)(F)F)cc2Cl)c1N [Compound 162, 5-Amino-1-(2,6-dichloro-4-trifluoromethylphenyl)-3-methyl-4-ethoxycarbonylpyrazole] yielded a melting point of 115 to 118 °C.

Compound Cc1nn(-c2c(Cl)cc(OC(F)(F)F)cc2Cl)c(N)c1S(C)(=O)=O [Compound 163, 5-Amino-1-(2,6-dichloro-4-trifluoromethoxyphenyl)-4-methanesulphonyl-3-methylpyrazole] has a melting point of 180 to 181 °C.

N#Cc1c(C(F)(F)F)nn(-c2c(Cl)c(F)c(C(F)(F)F)c(F)c2Cl)c1N [Compound 167, 5-Amino-4-cyano-1-(2,6-dichloro-3,5-difluoro-4-trifluoromethylphenyl)-3-trifluoromethylpyrazole] showed a melting point of 176 to 177 °C.

For CCOC(C)=Nc1c(C#N)c(C)nn1-c1c(Cl)cc(C(F)(F)F)cc1Cl [Compound 168, 4-Cyano-1-(2,6-dichloro-4-trifluoromethylphenyl)-5-(1-ethoxyethylideneamino)-3-methylpyrazole], the melting point was 50 to 53 °C.

Work on Cc1nn(-c2c(Cl)cc(C(F)(F)F)cc2Cl)c(N2C(=O)CCC2=O)c1C#N [Compound 169, 4-Cyano-1-(2,6-dichloro-4-trifluoromethylphenyl)-3-methyl-5-succinimidopyrazole] yielded a melting point of 202 to 204 °C.

In the case of CC(=O)Nc1c(S(C)(=O)=O)c(C(F)(F)F)nn1-c1c(Cl)cc(C(F)(F)F)cc1Cl [Compound 170, 5-Acetamido-1-(2,6-dichloro-4-trifluoromethylphenyl)-4-methanesulphonyl-3-trifluoromethylpyrazole], the melting point is reported as 194 to 195 °C.

Compound N#Cc1nn(-c2c(Cl)cc([N+](=O)[O-])cc2Cl)c(N)c1C#N [Compound 172, 5-Amino-1-(2,6-dichloro-4-nitrophenyl)-3,4-dicyanopyrazole] has a melting point of 289 to 290 °C.

Compound CCOC(=O)N(C)c1c(C#N)c(C(F)(F)F)nn1-c1c(Cl)cc(C(F)(F)F)cc1Cl [Compound 175, 4-Cyano-1-(2,6-dichloro-4-trifluoromethylphenyl)-5-(N-methyl-N-ethoxycarbonylamino)-3-trifluoromethylpyrazole] has a melting point of 88 to 90 °C.

Compound CC(=O)Nc1c([N+](=O)[O-])c(C(F)(F)F)nn1-c1c(Cl)cc(C(F)(F)F)cc1Cl [Compound 192, 5-Acetamido-1-(2,6-dichloro-4-trifluoromethylphenyl)-4-nitro-3-trifluoromethylpyrazole] has a melting point of 194 to 195 °C.

Compound N#Cc1c(C(F)(F)F)nn(-c2c(Cl)cc(C(F)(F)F)cc2Cl)c1SC(F)(F)F [Compound 208, 4-Cyano-1-(2,6-dichloro-4-trifluoromethylphenyl)-3-trifluoromethyl-5-trifluoromethylthiopyrazole] has a melting point of 120 to 122 °C.

For N#Cc1c(C(F)(F)F)nn(-c2c(Cl)cc(C(F)(F)F)cc2Cl)c1C(=O)O [Compound 209, 5-Carboxy-4-cyano-1-(2,6-dichloro-4-trifluoromethylphenyl)-3-trifluoromethylpyrazole], the melting point was 177 to 179 °C.

With C[Si](C)(C)c1c([N+](=O)[O-])c(C(F)(F)F)nn1-c1c(Cl)cc(C(F)(F)F)cc1Cl [Compound 210, 1-(2,6-Dichloro-4-trifluoromethylphenyl)-4-nitro-3-trifluoromethyl-5-trimethylsilylpyrazole] the mortality at 50 ppm [1] was 100%, the “score from 4 replicates, Megoura viciae” value [1] was 12 and the mortality at 5 ppm [2] was 100%. The mortality at 500 ppm [3] was 100%.

For CS(=O)(=O)c1c(C#N)nn(-c2c(Cl)cc(C(F)(F)F)cc2Cl)c1N [Compound 214, 5-Amino-3-cyano-1-(2,6-dichloro-4-trifluoromethylphenyl)-4-methanesulphonylpyrazole], the mortality at 50 ppm [1] was 100%, the “score from 4 replicates, Megoura viciae” value [1] was 12 and the mortality at 5 ppm [2] was 100%. It also gave a mortality at 500 ppm [3] of 100%.

In the case of N#Cc1c(C(F)(F)F)nn(-c2c(Cl)cc([S+]([O-])C(F)(F)F)cc2Cl)c1N (centres unmarked) [Compound 219, 5-Amino-4-cyano-1-(2,6-dichloro-4-trifluoromethylsulphinylphenyl)-3-trifluoromethylpyrazole], the mortality at 50 ppm [1] is reported as 100%, the “score from 4 replicates, Megoura viciae” value [1] is reported as 12 and the mortality at 5 ppm [2] is reported as 100%. For the same compound, the mortality at 500 ppm [3] was 100%.

For CCSc1c(C(F)(F)F)nn(-c2c(Cl)cc(C(F)(F)F)cc2Cl)c1N [Compound 228, 5-Amino-1-(2,6-dichloro-4-trifluoromethylphenyl)-4-ethylthio-3-trifluoromethylpyrazole], the mortality at 50 ppm [1] was 100%, the “score from 4 replicates, Megoura viciae” value [1] was 12 and the mortality at 5 ppm [2] was 100%. It also gave a mortality at 500 ppm [3] of 100%.
